Values joined by “and” are separate entries in the source; they are usually repeats but may differ in a detail not shown here. Equal entries are not always repeated. Inconclusive results and toxic doses are left out. Rule for the calls: active = survival T/C of 150% or more; inactive = T/C below 125% in these data.
Tested on: P388 leukemia ip, CD2F1 mice, survival T/C
Experiment: NCI In Vivo Anticancer Drug Screen. Data for tumor model P388 Leukemia (intraperitoneal) in CD2F1 (CDF1) mice
Conditions: endpoint: median survival time, higher = longer survival
Procedure, shortened: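 Mice carrying the transplanted tumor received test compound or vehicle. Survival was recorded in each group, and the value is the treated-group measurement divided by that of the vehicle-treated control group.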

[1] = dose: 50.0 mg/kg/injection, schedule: Q01DX009 (ip), vehicle: saline with Tween-80
[2] = dose: 200.0 mg/kg/injection, schedule: Q01DX009 (ip), vehicle: saline with Tween-80
[3] = dose: 50.0 mg/kg/injection, schedule: Q01DX005 (ip), vehicle: saline with Tween-80
[4] = dose: 100.0 mg/kg/injection, schedule: Q01DX005 (ip), vehicle: saline with Tween-80
[5] = dose: 200.0 mg/kg/injection, schedule: Q01DX005 (ip), vehicle: saline with Tween-80
[6] = dose: 12.5 mg/kg/injection, schedule: Q01DX009 (ip), vehicle: saline
[7] = dose: 25.0 mg/kg/injection, schedule: Q01DX009 (ip), vehicle: saline
[8] = dose: 50.0 mg/kg/injection, schedule: Q01DX009 (ip), vehicle: saline
[9] = dose: 100.0 mg/kg/injection, schedule: Q01DX009 (ip), vehicle: saline with Tween-80
[10] = dose: 50.0 mg/kg/injection, schedule: Q01DX005 (ip), vehicle: Klucel (hydroxypropylcellulose) (HPC)
[11] = dose: 100.0 mg/kg/injection, schedule: Q01DX005 (ip), vehicle: Klucel (hydroxypropylcellulose) (HPC)
[12] = dose: 100.0 mg/kg/injection, schedule: Q04DX002 (ip), vehicle: saline
[13] = dose: 200.0 mg/kg/injection, schedule: Q04DX002 (ip), vehicle: saline
[14] = dose: 400.0 mg/kg/injection, schedule: Q04DX002 (ip), vehicle: saline

Measured: T/C

CCC(=O)Oc1ccc(C2N(Cc3ccc(N(C)C)cc3)CCCN2Cc2ccc(N(C)C)cc2)cc1
inactive: [1] 90 % of control | [2] 90 % of control

Cc1cccc(Br)[n+]1[O-]
inactive: dose: 12.5 mg/kg/injection, schedule: Q01DX001 (ip), vehicle: saline 100 % of control | dose: 25.0 mg/kg/injection, schedule: Q01DX001 (ip), vehicle: saline 109 % of control | dose: 50.0 mg/kg/injection, schedule: Q01DX001 (ip), vehicle: saline 100 % of control

C[S+](C)CCCNC(=O)c1csc(-c2cscn2)n1
inactive: dose: 6.25 mg/kg/injection, schedule: Q01DX005 (ip), vehicle: water 101 % of control | dose: 12.5 mg/kg/injection, schedule: Q01DX005 (ip), vehicle: water 96 % of control | dose: 25.0 mg/kg/injection, schedule: Q01DX005 (ip), vehicle: water 101 % of control

COc1ccc(/C=C/c2nc(Nc3ccc(S(N)(=O)=O)cc3)c3ccccc3n2)cc1
inactive: dose: 50.0 mg/kg/injection, schedule: Q01DX009 (ip), vehicle: acetone 102 % of control | dose: 100.0 mg/kg/injection, schedule: Q01DX009 (ip), vehicle: acetone 99 % of control | dose: 200.0 mg/kg/injection, schedule: Q01DX009 (ip), vehicle: acetone 96 % of control

O=c1c2c([nH]c(=S)n1-c1ccccc1)NCCC2
inactive: dose: 50.0 mg/kg/injection, schedule: Q04DX003 (ip), vehicle: Klucel (hydroxypropylcellulose) (HPC) 101 % of control | dose: 100.0 mg/kg/injection, schedule: Q04DX003 (ip), vehicle: Klucel (hydroxypropylcellulose) (HPC) 101 % of control | dose: 200.0 mg/kg/injection, schedule: Q04DX003 (ip), vehicle: Klucel (hydroxypropylcellulose) (HPC) 111 % of control

CC1/C(=N\Nc2ccc([N+](=O)[O-])cc2)CC2C3(C)CCC2(C(C)C(=O)O)C(=O)C13 (stereo not given)
inactive: dose: 100.0 mg/kg/injection, schedule: Q04DX003 (ip), vehicle: saline 93 % of control | dose: 200.0 mg/kg/injection, schedule: Q04DX003 (ip), vehicle: saline 93 % of control | dose: 400.0 mg/kg/injection, schedule: Q04DX003 (ip), vehicle: saline 95 % of control

OCC(O)C(O)C1[O][Sb][O]C1CO (stereo not given)
inactive: [3] 100 % of control and 101 % of control | [4] 96 % of control and 100 % of control and 104 % of control | [5] 100 % of control and 96 % of control and 104 % of control

Cc1ccc2c[n+]3ccccc3c(-c3ccccc3)c2c1
inactive: dose: 1.56 mg/kg/injection, schedule: Q04DX003 (ip), vehicle: Klucel (hydroxypropylcellulose) (HPC) 100 % of control | dose: 3.12 mg/kg/injection, schedule: Q04DX003 (ip), vehicle: Klucel (hydroxypropylcellulose) (HPC) 100 % of control

CCCOc1ccc2c(NCCCCCCNc3c4ccccc4nc4cc(OCCC)ccc34)c3ccccc3nc2c1
inactive: dose: 0.62 mg/kg/injection, schedule: Q## X009 (ip), vehicle: lactic acid 121 % of control | dose: 2.5 mg/kg/injection, schedule: Q## X009 (ip), vehicle: lactic acid 120 % of control | dose: 5.0 mg/kg/injection, schedule: Q## X009 (ip), vehicle: lactic acid 105 % of control

c1ccc(C2SC3=NCCCN3Cc3ccccc32)cc1 (stereo not given)
inactive: [6] 104 % of control | [7] 109 % of control | [8] 104 % of control and 97 % of control

N#Cc1c(-c2ccccc2)cn2c1[nH]c(=O)c1ccccc12
inactive: dose: 60.0 mg/kg/injection, schedule: Q01DX005 (ip), vehicle: saline with Tween-80 111 % of control | dose: 120.0 mg/kg/injection, schedule: Q01DX005 (ip), vehicle: saline with Tween-80 107 % of control | dose: 240.0 mg/kg/injection, schedule: Q01DX005 (ip), vehicle: saline with Tween-80 101 % of control

CN1C2=C(C#N)C(=C(C#N)C#N)NC2C(C)(C)c2ccccc21 (stereo not given)
inactive: [1] 96 % of control | [9] 88 % of control | [2] 92 % of control

CCOC(=O)CCC(Br)(Br)Br
inactive: dose: 50.0 mg/kg/injection, schedule: Q01DX009 (ip), vehicle: Klucel (hydroxypropylcellulose) (HPC) 100 % of control | dose: 100.0 mg/kg/injection, schedule: Q01DX009 (ip), vehicle: Klucel (hydroxypropylcellulose) (HPC) 100 % of control | dose: 200.0 mg/kg/injection, schedule: Q01DX009 (ip), vehicle: Klucel (hydroxypropylcellulose) (HPC) 97 % of control

COc1cc2c(c(OC)c1OC)-c1ccc(S(=O)(=O)Cc3ccccc3)c(=O)cc1C(NC(C)=O)CC2 (stereo not given)
inactive: dose: 0.78 mg/kg/injection, schedule: Q01DX009 (ip), vehicle: Klucel (hydroxypropylcellulose) (HPC) 95 % of control | dose: 1.56 mg/kg/injection, schedule: Q01DX009 (ip), vehicle: Klucel (hydroxypropylcellulose) (HPC) 105 % of control and 106 % of control and 117 % of control | dose: 3.12 mg/kg/injection, schedule: Q01DX009 (ip), vehicle: Klucel (hydroxypropylcellulose) (HPC) 100 % of control and 107 % of control and 115 % of control | dose: 6.25 mg/kg/injection, schedule: Q01DX009 (ip), vehicle: Klucel (hydroxypropylcellulose) (HPC) 104 % of control and 107 % of control and 96 % of control | dose: 12.5 mg/kg/injection, schedule: Q01DX009 (ip), vehicle: Klucel (hydroxypropylcellulose) (HPC) 105 % of control and 109 % of control and 113 % of control | dose: 25.0 mg/kg/injection, schedule: Q01DX009 (ip), vehicle: Klucel (hydroxypropylcellulose) (HPC) 98 % of control and 101 % of control and 88 % of control

CC(C)(C)N1C(=O)C(c2ccccc2)(c2ccccc2)C1/C=C/c1ccccc1 (stereo not given)
inactive: [10] 93 % of control | [11] 90 % of control

O=C1C=C(N2CC2)c2ccccc2C1=O
inactive: dose: 6.25 mg/kg/injection, schedule: Q01DX009 (ip), vehicle: saline with Tween-80 118 % of control | dose: 6.25 mg/kg/injection, schedule: Q04DX003 (ip), vehicle: saline with Tween-80 110 % of control | dose: 8.33 mg/kg/injection, schedule: Q01DX009 (ip), vehicle: saline with Tween-80 118 % of control | dose: 12.5 mg/kg/injection, schedule: Q04DX003 (ip), vehicle: saline with Tween-80 120 % of control

N=C(N)c1ccc(NN=Nc2cccc3c2Oc2ccccc2O3)cc1
inactive: [3] 106 % of control | [4] 103 % of control | [5] 95 % of control

CN(C)C(=O)Nc1nc2cc(Cl)c(Cl)cc2[nH]1
inactive: dose: 200.0 mg/kg/injection, schedule: Q04DX003 (oral), vehicle: saline with Tween-80 102 % of control | dose: 400.0 mg/kg/injection, schedule: Q04DX003 (oral), vehicle: saline with Tween-80 117 % of control | dose: 800.0 mg/kg/injection, schedule: Q04DX003 (oral), vehicle: saline with Tween-80 112 % of control | dose: 1600.0 mg/kg/injection, schedule: Q04DX003 (oral), vehicle: saline with Tween-80 121 % of control

Cn1c2c(c(=O)n(C)c1=O)Cc1cc(CC(=O)O)ccc1N2
inactive: dose: 100.0 mg/kg/injection, schedule: Q01DX001 (ip), vehicle: saline with Tween-80 99 % of control | dose: 200.0 mg/kg/injection, schedule: Q01DX001 (ip), vehicle: saline with Tween-80 97 % of control | dose: 400.0 mg/kg/injection, schedule: Q01DX001 (ip), vehicle: saline with Tween-80 96 % of control

CC12Cc3cn[nH]c3CC1CCC1C2CCC2(C)C1CCC2(C)O (stereo not given)
inactive: [12] 98 % of control | [13] 100 % of control | [14] 97 % of control

CCn1c(=O)c2c(ncn2C)n(C)c1=O
inactive: dose: 6.25 mg/kg/injection, schedule: Q01DX009 (ip), vehicle: saline 100 % of control | [6] 101 % of control | [7] 100 % of control | [8] 100 % of control

CCCCCCC(=O)/C=C/c1ccc(OC(=O)c2ccc(C#N)cc2)cc1
inactive: [1] 100 % of control | [9] 101 % of control | [2] 95 % of control

O=C1c2ccccc2-c2c1c1ccccc1c(=O)n2Cc1ccccc1
inactive: dose: 6.25 mg/kg/injection, schedule: Q01DX005 (ip), vehicle: saline with Tween-80 101 % of control | dose: 12.5 mg/kg/injection, schedule: Q01DX005 (ip), vehicle: saline with Tween-80 101 % of control | dose: 25.0 mg/kg/injection, schedule: Q01DX005 (ip), vehicle: saline with Tween-80 104 % of control

CCn1cc(C(=O)O)c(=O)c2ccc(C)[n+](C)c21
inactive: [12] 99 % of control | [13] 100 % of control | [14] 98 % of control

CC(C)N(CCn1cnc2c(N)ncnc21)C(C)C
inactive: [10] 100 % of control | [11] 97 % of control

NC(=O)C12OC3CC(CC(C3)O1)O2
inactive: dose: 60.0 mg/kg/injection, schedule: Q01DX005 (ip), vehicle: saline 117 % of control | dose: 120.0 mg/kg/injection, schedule: Q01DX005 (ip), vehicle: saline 98 % of control | dose: 240.0 mg/kg/injection, schedule: Q01DX005 (ip), vehicle: saline 99 % of control
